Reference: PubChem BioAssay (NCI)
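Grown in 96-well plates, cells were treated for 48 hours with each compound at five concentrations. Insufficient inhibition: endpoint recorded as highest concentration tested. GI50 marks 50% less growth. TGI denotes the concentration required for complete inhibition of growth.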

How the values were obtained:
Assay in all cases: inhibition of tumour cell growth, NCI panel, 48 h
[1] = tested on: HL-60(TB) leukemia
[2] = tested on: HOP-92 NSCLC
[3] = tested on: MCF7 breast
[4] = tested on: EKVX NSCLC
[5] = tested on: SK-MEL-5 melanoma
[6] = tested on: IGROV1 ovarian
[7] = tested on: NCI-H23 lung
[8] = tested on: A498 renal
[9] = tested on: MALME-3M melanoma
[10] = tested on: BT-549 breast
[11] = tested on: UACC-62 melanoma
[12] = tested on: NCI/ADR-RES ovarian
[13] = tested on: COLO 205 colon
[14] = tested on: CAKI-1 renal
[15] = tested on: SK-OV-3 ovarian
[16] = tested on: PC-3 prostate
[17] = tested on: SW-620 colon
[18] = tested on: HCT-116 colon
[19] = tested on: OVCAR-8 ovarian
[20] = tested on: SR leukemia
[21] = tested on: OVCAR-5 ovarian
[22] = tested on: NCI-H226 lung
[23] = tested on: SN12C renal
[24] = tested on: MDA-MB-435
[25] = tested on: NCI-H460 lung
[26] = tested on: DU-145 prostate
[27] = tested on: U251 CNS
[28] = tested on: 786-0 renal
[29] = tested on: CCRF-CEM leukemia
[30] = tested on: SNB-19 CNS
[31] = tested on: SF-268 CNS
[32] = tested on: SF-539 CNS
[33] = tested on: HOP-62 NSCLC
[34] = tested on: RXF 393 renal
[35] = tested on: LOX IMVI melanoma
[36] = tested on: SK-MEL-2 melanoma
[37] = tested on: MDA-MB-231 breast
[38] = tested on: SF-295 CNS
[39] = tested on: HS 578T breast
[40] = tested on: UACC-257 melanoma
[41] = tested on: SNB-75 CNS
[42] = tested on: A549 NSCLC
[43] = tested on: HT29 colon
[44] = tested on: TK-10 renal
[45] = tested on: M14 melanoma
[46] = tested on: OVCAR-4 ovarian
[47] = tested on: RPMI-8226 leukemia
[48] = tested on: SK-MEL-28 melanoma
[49] = tested on: KM12 colon
[50] = tested on: T-47D breast
[51] = tested on: MOLT-4 leukemia
[52] = tested on: HCT-15 colon
[53] = tested on: UO-31 renal
[54] = tested on: HCC-2998 colon
[55] = tested on: K-562 leukemia
[56] = tested on: NCI-H522 lung
[57] = tested on: ACHN renal
[58] = tested on: OVCAR-3 ovarian

SMILES: C=C1c2nc3ccccc3n2C=C(c2cccc(Cl)c2)N1Cc1ccc(OC)cc1
- GI50 [1]: 0.193 µM
- TGI [1]: 0.639 µM
- GI50 [2]: 2.36 µM
- TGI [2]: > 82.4 µM
- GI50 [3]: 0.331 µM
- TGI [3]: > 39.4 µM
- GI50 [4]: 1.07 µM
- TGI [4]: 12.8 µM
- GI50 [5]: 0.276 µM
- TGI [5]: 3.55 µM
- GI50 [6]: 0.471 µM
- TGI [6]: 15.8 µM
- GI50 [7]: 0.77 µM
- TGI [7]: > 35.7 µM
- GI50 [8]: 9.33 µM
- TGI [8]: 60.4 µM
- GI50 [9]: 0.717 µM
- TGI [9]: 72 µM
- GI50 [10]: 1.7 µM
- TGI [10]: > 100 µM
- GI50 [11]: 0.937 µM
- TGI [11]: 19.1 µM
- GI50 [12]: 0.441 µM
- TGI [12]: 5.49 µM
- GI50 [13]: 9.14 µM
- TGI [13]: 35.7 µM
- TGI [14]: 4.71 µM
- GI50 [15]: 2.88 µM
- TGI [15]: > 100 µM
- GI50 [16]: 2.21 µM
- TGI [16]: > 70.3 µM
- GI50 [17]: 0.441 µM
- TGI [17]: > 78.2 µM
- GI50 [18]: 0.496 µM
- TGI [18]: 11.7 µM
- GI50 [19]: 2.43 µM
- TGI [19]: > 57.3 µM
- GI50 [20]: 0.274 µM
- TGI [20]: 1.31 µM
- GI50 [21]: 5.84 µM
- TGI [21]: > 30.9 µM
- GI50 [22]: 4.5 µM
- TGI [22]: 30 µM
- GI50 [23]: 1.26 µM
- TGI [23]: 50.3 µM
- GI50 [24]: 0.158 µM
- GI50 [25]: 0.416 µM
- TGI [25]: 10.5 µM
- GI50 [26]: 1.8 µM
- TGI [26]: > 53.5 µM
- GI50 [27]: 0.768 µM
- TGI [27]: > 100 µM
- GI50 [28]: 3.08 µM
- TGI [28]: 17.3 µM
- GI50 [29]: 2.75 µM
- TGI [29]: > 23.3 µM
- GI50 [30]: 1.04 µM
- TGI [30]: > 100 µM
- GI50 [31]: 1.05 µM
- TGI [31]: > 57.2 µM
- GI50 [32]: 0.745 µM
- TGI [32]: 4.56 µM
- GI50 [33]: 2.35 µM
- TGI [33]: 39.8 µM
- GI50 [34]: 1.16 µM
- TGI [34]: 13.1 µM
- GI50 [35]: 0.878 µM
- TGI [35]: 21.5 µM
- GI50 [36]: 0.636 µM
- TGI [36]: 68 µM
- GI50 [37]: 0.964 µM
- TGI [37]: > 100 µM
- GI50 [38]: 1.42 µM
- TGI [38]: 6.91 µM
- GI50 [39]: 0.565 µM
- TGI [39]: > 100 µM
- GI50 [40]: 5.64 µM
- TGI [40]: > 100 µM
- GI50 [41]: 0.452 µM
- TGI [41]: > 100 µM
- GI50 [42]: 3.98 µM
- TGI [42]: > 100 µM
- GI50 [43]: 7.15 µM
- TGI [43]: 53.2 µM
- GI50 [44]: 6.64 µM
- TGI [44]: > 64.9 µM
- GI50 [45]: 0.589 µM
- TGI [45]: > 44.2 µM
- GI50 [46]: 1.83 µM
- TGI [46]: > 100 µM
- GI50 [47]: 0.361 µM
- TGI [47]: 5.75 µM
- GI50 [48]: 10.5 µM
- TGI [48]: 54.4 µM
- GI50 [49]: 1.76 µM
- TGI [49]: 16.6 µM
- GI50 [50]: 2.55 µM
- TGI [50]: > 80.4 µM
- GI50 [51]: 2.57 µM
- TGI [51]: 11.2 µM
- GI50 [52]: 0.535 µM
- TGI [52]: > 100 µM
- GI50 [53]: 1.92 µM
- TGI [53]: 33.7 µM
- GI50 [54]: 2.32 µM
- TGI [54]: 13.5 µM
- GI50 [55]: 0.29 µM
- TGI [55]: 5.25 µM
- GI50 [56]: 0.221 µM
- TGI [56]: 1.1 µM
- GI50 [57]: 1.11 µM
- TGI [57]: > 100 µM

SMILES: CCOc1cc(-c2nncn2C)ccc1Nc1ncc2cc(C)nc(NCC(C)(C)C)c2n1
- GI50 [1]: > 100 µM
- TGI [1]: > 100 µM
- GI50 [2]: > 26 µM
- TGI [2]: > 100 µM
- TGI [3]: > 100 µM
- TGI [4]: > 100 µM
- GI50 [5]: > 24 µM
- TGI [5]: > 100 µM
- GI50 [6]: > 100 µM
- TGI [6]: > 100 µM
- GI50 [7]: > 89.7 µM
- TGI [7]: > 100 µM
- GI50 [8]: 0.514 µM
- TGI [8]: > 100 µM
- GI50 [9]: > 100 µM
- TGI [9]: > 100 µM
- GI50 [10]: > 80.5 µM
- TGI [10]: > 100 µM
- GI50 [11]: > 100 µM
- TGI [11]: > 100 µM
- GI50 [12]: 1.06 µM
- TGI [12]: > 100 µM
- GI50 [13]: 1.4 µM
- TGI [13]: > 100 µM
- GI50 [14]: > 26.6 µM
- TGI [14]: > 100 µM
- GI50 [15]: > 100 µM
- TGI [15]: > 100 µM
- TGI [16]: > 100 µM
- GI50 [17]: 0.439 µM
- TGI [17]: > 100 µM
- GI50 [18]: 0.0849 µM
- TGI [18]: > 100 µM
- TGI [19]: > 100 µM
- GI50 [20]: 0.15 µM
- TGI [20]: > 75.8 µM
- GI50 [21]: > 100 µM
- TGI [21]: > 100 µM
- GI50 [22]: > 23.5 µM
- TGI [22]: > 100 µM
- GI50 [23]: > 100 µM
- TGI [23]: > 100 µM
- GI50 [24]: > 100 µM
- TGI [24]: > 100 µM
- GI50 [25]: 0.535 µM
- TGI [25]: > 100 µM
- GI50 [26]: > 30.7 µM
- TGI [26]: > 100 µM
- GI50 [27]: > 100 µM
- TGI [27]: > 100 µM
- GI50 [28]: > 100 µM
- TGI [28]: > 100 µM
- GI50 [29]: 0.321 µM
- TGI [29]: > 100 µM
- GI50 [30]: > 100 µM
- TGI [30]: > 100 µM
- GI50 [31]: > 100 µM
- TGI [31]: > 100 µM
- TGI [32]: > 100 µM
- GI50 [33]: > 26.2 µM
- TGI [33]: > 100 µM
- GI50 [58]: > 27.5 µM
- TGI [58]: > 100 µM
- GI50 [34]: 2.33 µM
- TGI [34]: > 100 µM
- GI50 [35]: 1.1 µM
- TGI [35]: > 100 µM
- GI50 [36]: > 100 µM
- TGI [36]: > 100 µM
- TGI [37]: > 100 µM
- GI50 [38]: > 100 µM
- TGI [38]: > 100 µM
- TGI [39]: > 100 µM
- GI50 [40]: > 100 µM
- TGI [40]: > 100 µM
- GI50 [41]: > 26 µM
- TGI [41]: > 100 µM
- GI50 [42]: 2.34 µM
- TGI [42]: > 100 µM
- GI50 [43]: 1.78 µM
- TGI [43]: > 100 µM
- GI50 [44]: > 100 µM
- TGI [44]: > 100 µM
- GI50 [45]: > 100 µM
- TGI [45]: > 100 µM
- GI50 [46]: > 29.3 µM
- TGI [46]: > 100 µM
- GI50 [47]: 2.31 µM
- TGI [47]: > 100 µM
- GI50 [48]: > 100 µM
- TGI [48]: > 100 µM
- GI50 [49]: > 100 µM
- TGI [49]: > 100 µM
- GI50 [50]: 2.83 µM
- TGI [50]: > 100 µM
- TGI [51]: > 100 µM
- GI50 [52]: 0.193 µM
- TGI [52]: > 100 µM
- GI50 [54]: > 100 µM
- TGI [54]: > 100 µM
- TGI [55]: > 100 µM
- GI50 [56]: > 64.4 µM
- TGI [56]: > 100 µM
- TGI [57]: > 100 µM
